Results taken from US9579358B2, “Compositions for binding to amyloid proteins” (LANCASTER UNIVERSITY BUSINESS ENTERPRISES LIMITED, priority 2011, dated 2017).
Read-outs that look alike come from different tables or passages of the source. Non-standard residues stand in square brackets, D forms with d. Residues, ends and D or L forms follow the SMILES beside them.

Columns and labels:
Aβ42 fibrils = target: T1, Aβ42 fibrils (Homo sapiens, UniProt P05067); assay: Surface plasmon resonance binding to immobilized Aβ42 fibrils
T1 construct: purchased rPeptide, Bogart, Ga., USA
T1 sequence (P05067 672-713 limits assumed): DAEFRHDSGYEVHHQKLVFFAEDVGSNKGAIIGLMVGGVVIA
Source text: SPR (Surface Plasmon Resonance) is a technique that can be used to measure the affinity of a substance for a substrate. The substrate (in this case Aβ fibrils) is bound to a solid surface and excited using a laser light source. The compound to be tested (e.g. PINPs) is allowed to flow over the bound substrate in suspension/solution and the emission spectra of the substrate will change if the compound binds. A second solution, without the test compound, can then added to elute any bound compound and the emission spectra may be observed to note loss of bound compound from the substrate. For a specific example regarding peptide binding to Aβ see reference (30).
In the examples presented here, The substance is introduced at a flow rate of 30 uL/min for 5 minute over the immobilized substrate. There is a spike in the signal which is due to the introduction of solvent without PINPs to show removal of the peptide bound to the Aβ fibrils. There are two plots related to addition of peptide at two different concentrations, 1 and 3 μM, plus a computer generated fitted curve for each one.
These experiments were conducted using a Sensi Q semi-automatic SPR machine (ICx Nomadics). This apparatus has two parallel flow cells; one was used to immobilize Aβ42 fibrils while the other was used as “reference” (empty surface). A COOH5 sensor chip (ICx Nomadics) was employed for this purpose and the peptide was immobilized by amine coupling chemistry. Briefly, after surface activation, the peptide preparation was diluted to 10 μM in acetate buffer (pH 4.0) and then injected for 5 min at a flow rate of 30 μL/min. Any remaining activated groups were blocked with ethanolamine (pH 8.0). The final immobilization level was ˜5,000 resonance units (1 RU=1 pg of protein/mm^2). The empty “reference” surface was prepared in parallel using the same immobilization procedure, but without addition of the peptide. Sensorgrams were then obtained via injection of three different concentrations of RI-OR2-TAT (1, 3 and 6 μM), as well as the vehicle (PBS with 0.005% Tween 20), over the immobilized ligand or control surface, in parallel.
These experiments were conducted using a Sensi Q semi-automatic SPR machine (ICx Nomadics). This apparatus has two parallel flow cells; one was used to immobilize Aβ(1-42) fibrils (see Aβ peptides) while the other was used as “reference” (empty surface). A COOH5 sensor chip (ICx Nomadics) was employed for this purpose and the peptide was immobilized by amine coupling chemistry. Briefly, after surface activation, the peptide preparations was diluted to 10 μM in acetate buffer (pH 4.0) and then injected for 5 min at a flow rate of 30 μL/min. Any remaining activated groups were blocked with ethanolamine (pH 8.0). The final immobilization level was 5000 resonance units (1 RU=1 pg of protein/mm^2). The empty “reference” surface was prepared in parallel using the same immobilization procedure, but without addition of the peptide. Sensorgrams were then obtained via injection of two different concentrations of RI-OR2 TAT/peptide liposome (1 and 3 μM), as well as the vehicle (PBS with 0.005% Tween 20), over the immobilized ligand or control surface, in parallel, at the same time.

Aβ42 = target: T2, Aβ42 (Homo sapiens, UniProt P05067); assay: Thioflavin T (ThT) assay for Aβ fibrils; format: biochemical; conditions: 48 h incubation of Aβ42; molar ratios 1:1, 1:2, 1:4 and 1:10 (inhibitor:Aβ42)
T2 construct: Recombinant Aβ42, Ultrapure, was purchased from rPeptide, Bogart, Ga., USA; purchased rPeptide, Bogart, Ga., USA
T2 sequence (P05067 672-713 limits assumed): as above
Procedure: This method was the same as that published previously. Briefly, 60 μl samples of solutions containing Aβ42 (25 μM), ThT (15 μM) and between 0 and 125 μM RI-OR2 or RI-OR2-TAT, in 10 mM phosphate buffered saline (PBS), pH 7.4, were incubated in sealed, black, clear-bottomed 384-well plates (Corning). ThT fluorescence was monitored every 10 mins (λex=442 nm, λem=483 nm) for 48 h at 30° C. in a Biotek Synergy 2 plate reader.

With `CC(=O)N[C@H](CCCNC(=N)N)C(=O)NCC(=O)N[C@H](Cc1ccccc1)C(=O)N[C@H](Cc1ccccc1)C(=O)N[C@@H](C(=O)N[C@H](CC(C)C)C(=O)N[C@H](CCCCN)C(=O)NCC(=O)N[C@H](CCCNC(=N)N)C(=O)N[C@H](CCCNC(=N)N)C(=O)N[C@H](CCCNC(=N)N)C(=O)N[C@H](CCCNC(=N)N)C(=O)N[C@H](CCC(N)=O)C(=O)N[C@H](CCCNC(=N)N)C(=O)N[C@H](CCCNC(=N)N)C(=O)N[C@H](CCCCN)C(=O)N[C@H](CCCCN)C(=O)N[C@H](CCCNC(=N)N)C(=O)NCC(=O)N[C@H](Cc1ccc(O)cc1)C(N)=O)C(C)C` [RI-OR2-TAT, Ac-rGffvlkGrrrrqrrkkrGy-NH2] (Ac-[dR]G[dF][dF][dV][dL][dK]G[dR][dR][dR][dR][dQ][dR][dR][dK][dK][dR]G[dY]-NH2) the “increase in affinity of binding to Aβ fibrils compared to RI-OR2” value (Aβ42 fibrils) was “approximately 1000 fold”, the koff (Aβ42 fibrils; Example 2, 1, 3 and 6 μM) was 0.00037 ± 1.5e-08 s⁻¹ and the kon (Aβ42 fibrils; Example 2, 1, 3 and 6 μM) was 3680 ± 615 M⁻¹ s⁻¹. The Kd (Aβ42 fibrils; Example 2, Langmuir 1:1 interaction model, read-out: calculated apparent affinity value (Kd)) was 58 to 125 nM, the “binding affinity for Aβ42 fibrils relative to RI-OR2” value (Aβ42 fibrils; Example 2, versus Kd=9.5 μM) was ~100 fold and the “binding affinity relative to peptide without TAT” value (Aβ42 fibrils; Example 7) was “approximately 1000 times”. For the same molecule, the Kd (Aβ42 fibrils; Example 7, 1 and 3 μM, read-out: Kd, binding to Aβ fibrils) was 15 to 75 nM, the Kd (Aβ42 fibrils; read-out: Kd, binding to Aβ fibrils) was 41 to 75 nM and the ThT fluorescence (Aβ42) was “lower fluorescence”.
